According to ChEMBL document CHEMBL5500327, “Targeting insulin-like growth factor 2 mRNA-binding proteins (IGF2BPs) for the treatment of cancer” (Eur J Med Chem, 2024):

How the values were obtained:
[1] = target: Insulin-like growth factor 2 mRNA-binding protein 2 (Homo sapiens, UniProt Q9Y6M1); assay: Binding affinity to Histidine-tagged IMP-2 (unknown origin) assessed as dissociation constant by fluorescence polarization assay
[2] = target: T1, Insulin-like growth factor 2 mRNA-binding protein 1 (Homo sapiens, UniProt Q9NZI8); assay: Binding affinity to human recombinant IGF2BP1 assessed as dissociation constant by SPR analysis
T1 sequence (Q9NZI8 whole entry): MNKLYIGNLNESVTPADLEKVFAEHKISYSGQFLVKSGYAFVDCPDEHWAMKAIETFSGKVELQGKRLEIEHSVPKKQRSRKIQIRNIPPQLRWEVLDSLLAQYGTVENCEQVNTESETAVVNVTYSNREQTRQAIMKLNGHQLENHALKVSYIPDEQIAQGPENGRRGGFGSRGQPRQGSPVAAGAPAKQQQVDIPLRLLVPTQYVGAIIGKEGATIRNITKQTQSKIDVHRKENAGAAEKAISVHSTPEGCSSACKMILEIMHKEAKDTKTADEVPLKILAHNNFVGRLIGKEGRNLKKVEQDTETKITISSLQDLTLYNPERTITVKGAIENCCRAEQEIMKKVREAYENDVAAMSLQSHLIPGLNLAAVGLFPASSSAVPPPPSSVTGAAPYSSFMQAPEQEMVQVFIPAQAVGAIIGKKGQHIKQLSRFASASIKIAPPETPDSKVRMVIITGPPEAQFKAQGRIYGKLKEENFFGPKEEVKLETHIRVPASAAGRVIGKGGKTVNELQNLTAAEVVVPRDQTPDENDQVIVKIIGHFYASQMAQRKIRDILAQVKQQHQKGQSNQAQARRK

[3] = Cytotoxicity against human Huh-7 cells assessed as reduction in cell viability incubated for 24 hrs by MTT assay
THP-1 = assay: Antiproliferative activity against human THP-1 cells assessed as reduction in cell growth incubated for 24 hrs by MTT assay; settings: THP-1, 24 h
HL-60 = assay: Antiproliferative activity against human HL-60 cells assessed as reduction in cell viability incubated for 24 hrs by MTT assay; settings: HL-60, 24 h
[4] = Inhibition of full length IMP-1 (unknown origin) binding to fluorescein labeled 93 nucleotide c-Myc mRNA expressed in Escherichia coli BL21 (DE3) pLysS by FAMA method
K562 = assay: Antiproliferative activity against human K562 cells assessed as reduction in cell viability incubated for 24 hrs by MTT assay; settings: K562, 24 h
NCI-H1299 = assay: Antiproliferative activity against human NCI-H1299 cells assessed as reduction in cell growth incubated for 24 hrs by MTT assay; settings: NCI-H1299, 24 h
[5] = target: T1, Insulin-like growth factor 2 mRNA-binding protein 1; assay: Binding affinity to IGF2BP1 (unknown origin) assessed as dissociation constant by MST assay
[6] = target: T1, Insulin-like growth factor 2 mRNA-binding protein 1; assay: Inhibition of full length recombinant IGF2BP1 (unknown origin) by fluorescence polarization assay

Sequence of Insulin-like growth factor 2 mRNA-binding protein 2 (Q9Y6M1 whole entry): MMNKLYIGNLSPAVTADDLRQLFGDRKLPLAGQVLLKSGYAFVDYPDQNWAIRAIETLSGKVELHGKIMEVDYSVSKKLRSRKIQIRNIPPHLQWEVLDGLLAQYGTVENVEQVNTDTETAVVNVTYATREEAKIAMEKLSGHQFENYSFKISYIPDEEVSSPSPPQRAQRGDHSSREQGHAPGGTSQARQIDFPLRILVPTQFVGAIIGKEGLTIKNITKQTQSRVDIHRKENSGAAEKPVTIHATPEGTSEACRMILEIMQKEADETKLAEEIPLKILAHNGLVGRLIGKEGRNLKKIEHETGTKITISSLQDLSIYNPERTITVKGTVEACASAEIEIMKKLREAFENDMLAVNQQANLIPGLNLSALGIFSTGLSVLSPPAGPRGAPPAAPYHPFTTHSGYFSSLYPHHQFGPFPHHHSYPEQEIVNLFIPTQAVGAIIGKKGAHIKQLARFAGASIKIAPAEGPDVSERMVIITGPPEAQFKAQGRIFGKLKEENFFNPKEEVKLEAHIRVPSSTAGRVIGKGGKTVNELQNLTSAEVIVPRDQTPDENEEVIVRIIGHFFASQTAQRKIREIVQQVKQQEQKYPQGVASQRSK

SMILES: CCCN(CCc1ccccc1)C(=O)Nc1cc(-c2ccc(Cl)c(Cl)c2)sc1C(=O)O
- IC50 [1]: 65.3 µM

SMILES: CCN(Cc1ccccc1)C(=O)Nc1cc(-c2ccc(C(F)(F)F)cc2)sc1C(=O)O
- IC50 [1]: 121 µM

SMILES: O=C(Nc1ccc(OC(F)(F)F)cc1C(=O)O)c1ccc(-c2ccccc2)cc1
- IC50 [1]: 81.3 µM

SMILES: CC(=O)OC(C)(C)/C=C/C(=O)[C@](C)(O)[C@H]1[C@H](O)C[C@@]2(C)[C@@H]3CC=C4[C@@H](C[C@H](O)C(=O)C4(C)C)[C@]3(C)C(=O)C[C@]12C
- Kd [2]: 1.2 µM
- IC50 at 24 h [3]: 4.1 µM

SMILES: Oc1ccc(Cl)cc1/C=N\N/C(=N/N=C/c1cc(Cl)ccc1O)N/N=C/c1cc(Cl)ccc1O
- IC50 (THP-1): 0.2 µM

SMILES: NC(=O)c1ccccc1/N=C/c1ccc(Br)s1
- IC50 (HL-60): 21.6 µM
- IC50 [4]: 5 µM
- IC50 (K562): 6.76 µM

SMILES: O=C(c1ccc(Cn2cc(CO)c3ccccc32)cc1)N1CCN(c2ccc3c(c2)OCO3)CC1
- IC50 (NCI-H1299): 0.8 µM
- Kd [5]: 1.4 µM

SMILES: O=C(c1ccc(-n2cnnn2)cc1)N1CCCC(Nc2ccc3c(c2)OCO3)C1 (configuration not stated)
- IC50 [6]: 91.1 µM
